This is an account of results in ChEMBL document CHEMBL1201862, “PubChem BioAssay data set” (2004).

Experiment in all cases: growth of human tumour cells (NCI), 48 h
In assay [1] the test system is DLD-1.
In assay [2] the test system is M14.
Assay [3] deals with MOLT-4.
Assay [4] concerns MDA-N.
In assay [5] the test system is LOX IMVI.
The subject of assay [6] is EKVX.
The test system of assay [7] is HOP-18.
Assay [8] deals with MCF7.
Assay [9] has as its system PC-3.
The test system of assay [10] is OVCAR-5.
Assay [11] has as its system HCT-15.
Assay [12] relates to M19-MEL.
Assay [13] relates to DU-145.
For assay [14], the system named is CAKI-1.
Assay [15] deals with DMS-273.
Assay [16] deals with Hs-578T.
The subject of assay [17] is TK-10.
Assay [18] relates to T47D.
Assay [19] relates to SR.
Assay [20] relates to BT-549.

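The compound was tested at five concentrations on cells cultured in 96-well plates, with a 48-hour exposure period. GI50 is the concentration that inhibits growth by half.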 Activity calls are given as the source filed them. Rule as the data show it: active = GI50 up to about 1.1 µM and inactive = higher. A value given as a limit tells only on which side of the number the result lay.

Consider `C[N+](C)(C)CC1CCCC(C[N+](C)(C)C)C1=O` (stereo not given), for which the GI50 in assay [1] is 0.105 µM (active); in assay [2], 0.879 µM (active); in [3], 0.133 µM (active); in [4] it was 3.49 µM (inactive); in assay [5] it was 1.23 µM (inactive); in assay [6], 1.58 µM (inactive). The GI50 in [7] is 0.494 µM (active); in assay [8], 0.506 µM (active); in [9], 4.61 µM (inactive); in assay [10], 3.52 µM (inactive); in [11], 0.308 µM; in assay [12], 0.879 µM (active). Moreover, the GI50 in assay [13] is 5.75 µM (inactive); in assay [14], 0.984 µM (active); in assay [15] it was 3.4 µM (inactive); in assay [16], 13 µM (inactive); in assay [17] it was 1.21 µM (inactive); in assay [18] it was 1.09 µM (active). Also, the results for the GI50 in [19] and in assay [20] were 0.158 µM (active) and 1.58 µM (inactive), respectively.
Consider `CC(=O)Oc1cc2c(cc1OC(C)=O)OCC(c1ccccc1)C2` (stereo not given), for which the GI50 in assay [1] is 9.31 µM (inactive); in assay [3], 5.85 µM (inactive); in assay [5] it was 13.5 µM (inactive); in [6] it was 28.3 µM (inactive); in assay [7], 29.9 µM (inactive); in [8], 32.5 µM (inactive). Besides, the GI50 in [10] is 33.3 µM (inactive); in assay [11], 13 µM; in assay [12], 14.9 µM (inactive); in [14], 16.4 µM (inactive); in assay [15], 34.2 µM (inactive).
Regarding `Cn1c(=O)[nH]c2nncnc2c1=O`, the GI50 in assay [1] was 384 µM (inactive); in [3], 181 µM (inactive); in assay [5], 361 µM (inactive); in [6], 40.5 µM (inactive); in assay [7], 13.5 µM (inactive); in assay [8], 212 µM (inactive). For the same compound, the GI50 in [10] was 186 µM (inactive); in [11], 299 µM; in [12], 43.7 µM (inactive); in [14], 11 µM (inactive); in [15] it was 21.6 µM (inactive).
As to `O=C1c2cccc3cc4ccccc4c(c23)C(=O)N1CCNCCNCCNCCN1C(=O)c2cccc3cc4ccccc4c(c23)C1=O`, the GI50 in [1] is < 0.014 µM (active); in assay [3], < 0.01 µM (active); in assay [5], < 0.01 µM (active); in assay [6], 0.129 µM (active); in assay [7], 0.0405 µM (active); in assay [8], < 0.01 µM (active). In addition, the GI50 was 0.158 µM (active) in [10]; below 0.01 µM in assay [11]; < 0.01 µM (active) in [12]; < 0.01 µM (active) in [14]; < 0.01 µM (active) in assay [15].
On to `CSc1nc(CO)c(CO)n1C`, for which the GI50 in assay [1], in assay [3], in assay [5], in [6], in assay [7] and in [8] was > 100 µM (inactive) throughout. Moreover, the GI50 in assay [10] is > 100 µM (inactive); in assay [11] it was above 100 µM; in assay [12] it was > 100 µM (inactive); in assay [14], > 100 µM (inactive); in assay [15], > 100 µM (inactive).
Take `COc1ccc2c(c1O)-c1cc(O)cc3c1[C@@H](C2)N(C)CC3`: the GI50 in [1] was 43.2 µM (inactive); in [3], 66.1 µM (inactive); in assay [5] it was 56.6 µM (inactive); in assay [6], 98.4 µM (inactive); in assay [7] it was 67.3 µM (inactive); in assay [8], 61.8 µM (inactive). Besides, the GI50 in assay [10] is 6.41 µM (inactive); in assay [11] it was 71.1 µM; in assay [12], 67.8 µM (inactive); in assay [14] it was 12.3 µM (inactive); in assay [15], 65.8 µM (inactive).
